5 compounds from article PMC4320154, “Treatment of Methicillin-resistant Staphylococcus aureus experimental Osteomyelitis with bone-targeted Vancomycin” (SpringerPlus, 2013) can be followed below.

Series [1] is classed as in vivo, male Wistar rats. As to the method:
(§1) Four weeks after establishing infection, five rats were sacrificed, the left tibia aseptically removed and quantitative cultures performed. The remaining animals underwent surgical débridement of the infection site with sterile saline and were arbitrarily assigned to one of five study arms for a duration of 21 days: No treatment (n=17), vancomycin HCl every 12 hours (n=17, 42 doses), BT2-peg2-vancomycin diformate every 12 hours (n=17, 42 doses), BT2-peg2-vancomycin diformate every 12 hours for 3.5 days and then every fourth day thereafter (n=16, 11 doses), and BT2-peg2-vancomycin diformate once per week (n=15, 3 doses). Vancomycin HCl was administered at 50 mg/kg and BT2-peg2-vancomycin diformate at 63.85 mg/kg (equivalent to 50 mg/kg active vancomycin); both were administered intraperitoneally. Twelve hours after completion of therapy (day 50), blood was collected via cardiac puncture for hematology and chemistry studies [performed by Charles River (Wilmington, MA)], and drug concentration studies. Rats were sacrificed with CO2. The left (infected) tibia from one animal in each group was collected for histopathology with bones placed in 10% neutralized buffered formalin (NBF), decalcified, embedded in […], prepared as longitudinal cuts and stained with hematoxylin and eosin. The left (infected) tibias from the remaining animals were weighed, cryopulverized and processed for quantitative and qualitative bacterial culture. Culture results were expressed as log10 cfu/g of bone tissue.
Kidneys from all animals were weighed, observed for abnormalities in size or color, and placed in NBF. Histological analysis was performed by Seventh Wave (Chesterfield, MO). Microscopic lesions were graded on a scale of one to four, with four being the most severe. Tubulointerstitial nephritis was characterized by multifocal non-suppurative interstitial inflammation, interstitial fibrosis, tubular epithelial degeneration, necrosis, and regeneration with frequent intra-tubular neutrophilic inflammation and cellular debris.

Series [2] has as its system Thirty clinical isolates of MRSA. Description: microbe, parasite or virus in culture. The settings on record: broth microdilution, CLSI, 30 MRSA isolates. The series is classed as cell-based, Staphylococcus aureus. On the procedure: (§2) Thirty clinical isolates of MRSA were studied. […] The minimum bactericidal concentration (MBC) of vancomycin HCl and BT2-peg2-vancomycin diacetate were also determined according to CLSI guidelines (Clinical and Laboratory Standards Institute [1999]).
For orientation: In broth dilution the organism is exposed to a series of concentrations in liquid medium.

The nature of series [3]: Hydroxyapatite (HA) binding assay. The settings on record: 50 mM Tris–HCl pH 7.4, 1% DMSO. As to the method: 10^-5 M solutions of tetracycline, vancomycin HCl or BT2-peg2-vancomycin diacetate in 50 mM Tris–HCl buffer, pH 7.4, 1% DMSO were prepared. […] An HA slurry of 0.5 g HA/100 ml 50 mM Tris–HCl buffer, 1% DMSO was prepared. For each analyte, two samples were tested in triplicate. For one sample, 1 ml of 10^-5 M analyte and 100 μl 50 mM Tris–HCl buffer, 1% DMSO was pipetted into a microcentrifuge tube. For the second sample, 1 ml of 10^-5 M analyte and 100 μl of the HA slurry was pipetted into a microcentrifuge tube. The samples were mixed gently by inversion for five minutes and then centrifuged at 12,000 g for three minutes to sediment the HA. The supernatant was transferred to another microcentrifuge tube. An electronic spectral scan (ultraviolet–visible) from 220–520 nm was obtained for each analyte using a Varian Cary 300 Bio Scan (Agilent Technologies, Santa Clara, CA). The blank was 50 mM Tris–HCl buffer, 1% DMSO. The wavelength of maximum absorbance (λmax) was determined, and the extinction coefficient (ϵ) calculated using the Beer-Lambert law. Absorbance of the samples incubated with HA was measured at λmax, and the molar concentration of the analyte determined using the Beer-Lambert law and the previously calculated extinction coefficient. The fraction adsorbed to HA was calculated for each sample. […]

For series [4], the system named is Thirty clinical isolates of MRSA. The series is classed as cell-based, Staphylococcus aureus. The settings on record: CLSI; 30 MRSA isolates. On the procedure: as §2
For the next series, the system named is MRSA IDRL-4293. The series is classed as cell-based, Staphylococcus aureus. The settings on record: MRSA isolate used in the experimental osteomyelitis model. As to the method:
as §2
The experimental model described was performed in accordance with the guidelines of the Institutional Animal Care and Use Committee of the Mayo Clinic. Experimental osteomyelitis was established in 90 male Wistar rats using a modification of Zak’s model of experimental osteomyelitis (O'Reilly & Mader [1999]). […] Animals were anesthetized with ketamine and xylazine and the proximal third of the medial left tibia surgically exposed. A 0.5 mm hole was drilled into the medullary cavity. Fifty microliters of morrhuate sodium (a sclerosing agent) was injected into the cavity, followed by 50 μl sterile saline containing 10^7 colony forming units (cfu) of MRSA IDRL-4293. The muscle was reattached with coated vicryl sutures (Ethicon, Somerville, NJ). The skin was closed with tissue glue (Tissuemend, Butler Animal Health Supply, Dublin, OH) and wound clips (Harvard Apparatus, Holliston, MA). The wound was sprayed with a wound adhesive (Aluspray, Butler Animal Health Supply, Dublin, OH), along with a chewing repellent (Chewguard, Summit Hill Laboratories, Tinton Falls, NJ).

Series [5] in a line: Plasma concentrations in infected animals by LC/MS. The series is classed as in vivo, male Wistar rats. The settings on record: 12 h after last dose; twice daily for 21 days ip; vancomycin HCl 50 mg/kg (n=16), BTV 63.85 mg/kg (n=13); LC/MS. On the procedure:
as §1
Plasma concentrations of BT2-peg2-vancomycin in infected animals were measured by liquid chromatography/mass spectrometry (LC/MS). […] The elutes (50 μl) were diluted with 450 μl 5% ACN in 0.1% formic acid and analyzed by Accela LC System (Thermo Scientific, San Jose, CA) coupled with a LTQ-Orbitrap XL mass spectrometer (Thermo Scientific, San Jose, CA). […] Elutes from the LC column were ionized by electrospray ionization and BT2-peg2-vancomycin and teicoplanin were detected by multiple reaction monitoring. […]
Plasma concentrations of vancomycin were measured by LC/MS. […]

Series [6] concerns MRSA recovered from treated or untreated animals. The series is classed as cell-based, Staphylococcus aureus. As to the method: as §2
Ten MRSA colonies per animal recovered from quantitative bacterial cultures were tested for susceptibility to BT2-peg2-vancomycin diformate and/or vancomycin HCl.

The structures appear in SMILES notation. Counter-ions that a name gives are not always drawn. Like-named read-outs stand apart in the source and are kept apart here.

On to `CN[C@H](CC(C)C)C(=O)N[C@H]1C(=O)N[C@@H](CC(N)=O)C(=O)N[C@H]2C(=O)N[C@H]3C(=O)N[C@H](C(=O)N[C@H](C(=O)NCCOCCOCC(=O)Nc4ccc(OC)c(C(N)=O)c4O)c4cc(O)cc(O)c4-c4cc3ccc4O)[C@H](O)c3ccc(c(Cl)c3)Oc3cc2cc(c3O[C@@H]2O[C@H](CO)[C@@H](O)[C@H](O)[C@H]2O[C@H]2C[C@](C)(N)[C@H](O)[C@H](C)O2)Oc2ccc(cc2Cl)[C@H]1O` [BT2-peg2-vancomycin diformate], for which the kidney size in series [1] (rat, in vivo) is ~ 25.5 × 17.5 mm. Further, in series [1] (rat, in vivo, ip), the “kidney gross appearance (color, size)” value was “lighter in color and larger”; the “kidney histology: tubulointerstitial nephritis grade” value worked out at 4.

`Cc1onc(-c2ccccc2)c1C(=O)N[C@@H]1C(=O)N2[C@@H]1SC(C)(C)[C@@H]2C(=O)O` [oxacillin]: the MIC50 in series [2] (Staphylococcus aureus, read-out: MIC at which 50% of the isolates were inhibited (MIC50)) is above 128 µg/mL.

With `CN(C)[C@@H]1C(O)=C(C(N)=O)C(=O)[C@@]2(O)C(O)=C3C(=O)c4c(O)cccc4[C@@](C)(O)[C@H]3C[C@@H]12` [tetracycline], the “fraction bound to HA” value in series [3] (at 10^-5 M, reference analyte) is recorded as “approximately 50%”.

By MBC is commonly meant the smallest concentration meeting the test's criterion for killing. Low values mean greater bactericidal potency, high ones weaker bactericidal potency. As to `CN[C@H](CC(C)C)C(=O)N[C@H]1C(=O)N[C@@H](CC(N)=O)C(=O)N[C@H]2C(=O)N[C@H]3C(=O)N[C@H](C(=O)N[C@H](C(=O)O)c4cc(O)cc(O)c4-c4cc3ccc4O)[C@H](O)c3ccc(c(Cl)c3)Oc3cc2cc(c3O[C@@H]2O[C@H](CO)[C@@H](O)[C@H](O)[C@H]2O[C@H]2C[C@](C)(N)[C@H](O)[C@H](C)O2)Oc2ccc(cc2Cl)[C@H]1O` [vancomycin HCl], the “kidney gross appearance (color, size)” value in series [1] (every 12 hours for 21 days ip) was “deep maroon color and size consistent with body weight”. For the same compound, the “kidney histology: tubulointerstitial nephritis grade” value in series [1] (every 12 hours for 21 days ip, lesions graded one to four, four most severe) was “did not exhibit microscopic abnormalities”. For the same compound, in series [1] (twice daily for 21 days ip, vancomycin HCl 50 mg/kg, BTV 63.85 mg/kg, no treatment 1.4), the “Kidney weight, median (range)” value is 1.4 (1.1-1.7) grams. In addition, in series [1] (twice daily for 21 days ip, vancomycin HCl 50 mg/kg, BTV 63.85 mg/kg, normal 9–30), the “BUN, median (range)” value is given as 18.5 (15–21) mg/dl. The “Creatinine, median (range)” value in series [1] (twice daily for 21 days ip, vancomycin HCl 50 mg/kg, BTV 63.85 mg/kg, normal range 0.4 to 0.7) is reported as 0.5 (0.4-0.6) mg/dl. For the same compound, the “Albumin, median (range)” value in series [1] (twice daily for 21 days ip, vancomycin HCl 50 mg/kg, BTV 63.85 mg/kg, normal range 3.2 to 4.5) is 3.4 (3.1-3.6) g/dl. The same compound had an MIC range in series [2] of 0.5 to 2 µg/mL. In series [4], the “MBC at which 50% of isolates were killed” value turned out to be 2 µg/mL and the MBC range was in the range of 0.5 to 64 µg/mL. Besides, in the series with MRSA IDRL-4293, the MBC was found to be 2 µg/mL and the MIC amounted to 2 µg/mL.

On to `CN[C@H](CC(C)C)C(=O)N[C@H]1C(=O)N[C@@H](CC(N)=O)C(=O)N[C@H]2C(=O)N[C@H]3C(=O)N[C@H](C(=O)N[C@H](C(=O)O)c4cc(O)cc(O)c4-c4cc3ccc4O)[C@H](O)c3ccc(c(Cl)c3)Oc3cc2cc(c3O[C@@H]2O[C@H](CO)[C@@H](O)[C@H](O)[C@H]2O[C@H]2C[C@](C)(N)[C@H](O)[C@H](C)O2)Oc2ccc(cc2Cl)[C@H]1O` [vancomycin], for which the HA binding index in series [3] (10^-5 M analyte, HA slurry, mixed 5 min, UV–vis at λmax, triplicate, % bound/% tetracycline bound × 100) came out at 0. The “MIC at which 50% of the isolates were inhibited (MIC50)” value in series [2] turned out to be 1 µg/mL. The “MIC at which 90% of the isolates were inhibited (MIC90)” value in series [2] stood at 2 µg/mL. The “Plasma concentration, median” value in series [5] was 710 ng/mL. In addition, in series [6] (all treatment groups), the “increase in MIC of recovered isolates” value was “No increase in vancomycin or BT2-peg2-vancomycin MIC of more than one doubling dilution”. Besides, the “MIC of recovered MRSA” value in series [6] (isolates from animals treated with BT2-peg2-vancomycin diformate once weekly) is 1 to 2 µg/mL; in series [6] (isolates from animals treated with BT2-peg2-vancomycin diformate twice daily), 1 to 4 µg/mL; in series [6] (isolates from animals treated with BT2-peg2-vancomycin diformate twice daily for 3.5 days then once every fourth day) it was 1 to 2 µg/mL; in series [6] (isolates recovered from the untreated group), 1 to 2 µg/mL; in series [6] (isolates recovered from vancomycin HCl-treated animals) it was 2 to 4 µg/mL. Besides, in series [4], the “MBC at which 90% of isolates were killed (MBC90)” value was determined as 16 µg/mL.
